Measurements: patent US9814785B2, “Hepatitis C virus liposome vaccine” (Saitama Medical University, priority 2010, dated 2017)
Where a SMILES comes first, the peptide text is derived from it.

Legend:
[1] = tested on: RMA-HHD target cells pulsed with peptide; conditions: for CTL cytotoxicity to target cell presenting each peptide: immunogenicity of each peptide in each pool, FIG. 2; for CTL cytotoxicity to target cell presenting each peptide / induction of cytotoxic T cells: 51Cr release; for induction of cytotoxic T cells: peptide-bound liposome prepared from the single peptide, FIG. 3
[2] = tested on: T cells that produce interferon gamma (IFN-γ) antigen-specifically; assay: ELISPOT (IFN-γ) with splenocytes of immunized mouse; assay type: in vivo, HHD mouse; conditions: for IFN-γ production due to the stimulation with each peptide: immunogenicity of each peptide in each pool, FIG. 2
[3] = tested on: recombinant vaccinia virus that expresses HCV-NS3 gene (VV-NS3); parameters: species or system HHD mouse; conditions: mouse, in vivo
[4] = immunization with recombinant virus VV-NS3, ELISPOT, FIG. 7

Molecule | CTL cytotoxicity to target cell presenting each peptide [1] | IFN-γ production due to the stimulation with each peptide ([2]; ELISPOT) | vaccine effect of peptide-bound liposome prepared from single peptide [3] | induction of cytotoxic T cells [1] | further results
CSCC[C@H](NC(=O)[C@@H](N)Cc1ccc(O)cc1)C(=O)N[C@@H](CC(N)=O)C(=O)N[C@H](C(=O)N1CCC[C@H]1C(=O)NCC(=O)N[C@@H](CC(C)C)C(=O)N1CCC[C@H]1C(=O)N[C@H](C(=O)O)C(C)C)[C@@H](C)O [peptide #3, Tyr Met Asn Thr Pro Gly Leu Pro Val] (H-YMNTPGLPV-OH) | strongly induced antigen-specific CTL | confirmed | remarkable vaccine effect |  | immunogenicity of liposome-bound peptide ([2]; F1 mouse (HHD male x C57BL/6 female) expressing HLA-A*0201 and H-2b, ELISPOT, FIG. 5): high immunogenicity of the same level as that of mouse epitope 1630-1637; boost effect on immunization with VV-NS3 [2, 4]: absent; immunogenicity of peptide on immunization with VV-NS3 [2, 4]: not exhibited; immunogenicity of peptide on immunization with whole NS3 ([2]; immunization with recombinant viruses Adex1CA3269 and VV-NS3, peptide not liposome-bound, FIG. 6): low immunogenicity and low; IFN-γ production ([2]; peptide-bound liposome prepared from the single peptide, ELISPOT, FIG. 3): particularly remarkable
CSCC[C@H](NC(=O)CN)C(=O)N[C@@H](Cc1ccccc1)C(=O)N[C@@H](CC(=O)O)C(=O)N[C@@H](CO)C(=O)N[C@@H](CO)C(=O)N[C@H](C(=O)N[C@@H](CC(C)C)C(=O)N[C@@H](CS)C(=O)O)C(C)C [peptide #13, Gly Met Phe Asp Ser Ser Val Leu Cys] (H-GMFDSSVLC-OH) | strongly induced antigen-specific CTL | confirmed | remarkable vaccine effect | confirmed | 
cys Met Ser Ala Asp Leu Glu Val Val (CMSADLEVV; Hepatitis C virus) [compound 17] | strongly induced antigen-specific CTL | confirmed |  | confirmed | 
CC[C@H](C)[C@H](NC(=O)[C@H](CS)NC(=O)[C@@H](NC(=O)[C@H](C)NC(=O)[C@H](CC(C)C)NC(=O)[C@@H](N)Cc1ccccc1)[C@@H](C)O)C(=O)N[C@@H](CC(N)=O)C(=O)NCC(=O)N[C@H](C(=O)O)C(C)C [compound 23, Phe Leu Ala Thr Cys Ile Asn Gly Val] (H-FLATCINGV-OH) | strongly induced antigen-specific CTL | confirmed |  | confirmed | 
CC[C@H](C)[C@H](NC(=O)[C@H](CC(C)C)NC(=O)[C@H](CS)NC(=O)[C@H](CCCCN)NC(=O)[C@H](Cc1c[nH]c2ccccc12)NC(=O)[C@H](CCSC)NC(=O)[C@@H](N)CCC(N)=O)C(=O)N[C@@H](CCCNC(=N)N)C(=O)N[C@@H](CC(C)C)C(=O)O [compound 8, Gln Met Trp Lys Cys Leu Ile Arg Leu] | strongly induced antigen-specific CTL |  |  |  | 
CC[C@H](C)[C@H](NC(=O)[C@@H](NC(=O)[C@H](CO)NC(=O)[C@@H](NC(=O)[C@H](CC(=O)O)NC(=O)[C@H](CC(C)C)NC(=O)CN)C(C)C)C(C)C)C(=O)N1CCC[C@H]1C(=O)N[C@H](C(=O)O)[C@@H](C)O [compound 14, Gly Leu Asp Val Ser Val Ile Pro Thr] (H-GLDVSVIPT-OH) | strongly induced antigen-specific CTL | confirmed |  |  | 
IMACMSADL (Hepatitis C virus) [#19-3A] |  |  |  |  | vaccine effect, comparison of #19 and #19-3A bound to liposome ([1]; liposome inoculated twice, FIG. 11): higher vaccine effect
CC[C@H](C)[C@H](N)C(=O)N[C@@H](CCSC)C(=O)N[C@H](C(=O)N[C@@H](CS)C(=O)N[C@@H](CCSC)C(=O)N[C@@H](CO)C(=O)N[C@@H](C)C(=O)N[C@@H](CC(=O)O)C(=O)N[C@@H](CC(C)C)C(=O)O)[C@@H](C)O [peptide #19, Ile Met Thr Cys Met Ser Ala Asp Leu] (H-IMTCMSADL-OH) | strongly induced antigen-specific CTL | confirmed | remarkable vaccine effect |  | 
